Measurements published in patent US11998602B2, “Methods for promoting myelination and for treating demyelinating diseases” (The Scripps Research Institute, priority 2018, dated 2024).

What was measured:
[1] = tested on: Rat primary optic nerve OPCs; test: In vitro OPC differentiation assay, MBP expression by Western blot; assay type: cell-based
Protocol: (§1) Rat primary optic nerve OPCs were isolated by panning (>99% A2B5^+) and cultured in poly-D-lysine (10 μg/ml)-coated TC dishes in OPC culture media (Neurobasal Media, Invitrogen) supplemented with B27-without vitamin A (Invitrogen), 1× non-essential amino acids, 1× Glutamax, 1× anti-anti, β-mercaptoethanol and PDGF-AA (50 ng/ml; Peprotech) at 37° C. with 5% CO2. The culture medium was replaced every 48 h and cells were collected before the confluency reached 60% to maintain a naive state. For differentiation, OPCs were plated at 1 million cells in one 10 cm petri-dish filled with differentiation media, which is identical to the culture media, but with PDGF-AA at 2 ng/ml. T3 and DMSO were used as the positive control and negative control, respectively. Five replicates of cells were collected at different times (0, 3, and 6 days) for metabolomics studies.
Western blot analysis. OPCs were plated in basal differentiation medium at 1.7×10^5 cells/well and treated for 6 days with benztropine (0.5 μM), miconazole (2 μM) with and without the tested endogenous metabolites, T3 (1 μM) or DMSO. After washing with PBS, cells were collected in ice cold RIPA buffer containing protease and phosphatase inhibitors. Following incubation on ice for >20 min and sonication, lysed cells were centrifuged (16,000 g, 15 min at 4° C.). Total protein was quantified using a BCA analysis and 25 μg of protein from each sample was denatured by boiling with Bolt LDS Sample Buffer (4×) and Sample Reducing Agent (10×). Proteins were electrophoresed using Bolt 4-12% Bis-Tris gels (Life Technologies) and transferred to a PVDF membrane (Bio-Rad). The membrane was blocked with Odyssey PBS Blocking Buffer (LI-COR) and incubated overnight at 4° C. with anti-MBP (mouse, 1:2000) and anti-actin (mouse, 1:5000). Blots were incubated with […] secondary donkey anti-mouse antibody (LI-COR, 1:7500) and imaged using Odyssey CLx and Image Studio (LI-COR).

OPCs [2] = test: Caspase-Glo 3/7 and Cell Titer Glo assays of apoptosis and survival during differentiation; assay type: cell-based, rat
Protocol: Detection of caspase 3/7. In poly-D-lysine-coated white 96-well plates (Greiner), cells were seeded at 5,000 cells per well. Taurine (20 mM) was added on days 0 or 3, alone and in combination with benztropine (0.5 μM), miconazole (2 μM), T3 (1 μM) or Staurosporine (1 μM) added on day 0. The Caspase-Glo 3/7 Assay (Promega) was utilized to quantify caspase-3/7 activity 6, 24 and 48 h after drug and taurine addition on day 0. Caspase-3/7 activity was also measured 24, 48 and 72 h (days 4, 5 and 6) after taurine addition on day 3.

OPCs [3] = test: Binary global metabolomics analysis of taurine co-treatment; assay type: cell-based, rat; details: for Cysteine pool, increase with taurine / Serine pool, increase with taurine / GSH level, increase with taurine / Cysteine level, increase with taurine / Serine level, increase with taurine: 20 mM taurine; for Cysteine pool, increase with taurine / Serine pool, increase with taurine: 3 days
Protocol: as §1
Global metabolomics and lipidomics. Cells incubated in differentiation medium were collected at Day 0, 3 and 6 for both the T3 and DMSO treated OPC. The cells were first rinsed with PBS twice to completely remove the culture medium and then scraped into a 1.5 mL Eppendorf vial using 500-1000 μL PBS. Subsequently, cells were collected by aspirating the supernatant after centrifugation at 1,000 rpm at 4° C. for 3 min. The global metabolites were extracted from cell pellets by a methanol:acetonitrile:water (2:2:1, v/v) solvent mixture. A volume of 600 μL of cold solvent was added to each pellet, vortexed for 30 s, and soaked in liquid nitrogen for 1 min. Samples were then allowed to thaw at room temperature and then sonicated for 10 min. This freeze-thaw process was repeated for additional twice. To further precipitate proteins, samples were incubated for 1 h at […], followed by centrifugation at 16,000 g at 4° C. for 15 min. The protein concentration of the cells was measured in the final pellet after centrifugation using BCA assay. The resulting supernatant was removed and evaporated to dryness in a vacuum concentrator (LABCONCO CentriVap Benchtop). The dry extracts were then reconstituted in the appropriate volume of acetonitrile/water (1:1, v/v), normalized by the protein concentration with the lowest concentration approximately 50 μL, sonicated for 10 min, and centrifuged for 15 min at 16,000 g and 4° C. to remove insoluble debris. The supernatants were transferred to HPLC vials with inserts and stored at −80° C. prior to LC/MS analysis. The Folch method was used to extract the lipids from OPCs treated with T3 and DMSO for 6 days. A mixture of 600 μL, chloroform/MeOH (2:1, v/v) was used in the freeze-thaw extraction method as described above, and a subsequent addition of 600 μL, of water was performed. Using this liquid-liquid extraction method, the organic phase was collected, dried and finally reconstituted in IPA/MeOH/H2O (5:1:4, v/v/v) before analysis.
Cell extracts were analyzed on a 6550 iFunnel QTOF mass spectrometer (Agilent Technologies) coupled with a 1290 UPLC system (Agilent Technologies). For global metabolomics, HPLC was carried out on a Luna Aminopropyl, 3 μm, 150 mm×1.0 mm I.D. HILIC column (Phenomenex). The mobile phase was composed of A=20 mM ammonium acetate and 40 mM ammonium hydroxide in 95% water (v/v) and B=95% acetonitrile. The remaining 5% components were either acetonitrile or water, respectively. A linear gradient from 100% B (0-5 min) to 100% A (50-55 min) was applied. A 10 min re-equilibration time was applied to the HILIC column for re-equilibration and maintenance of reproducibility. The flow rate was 50 μL/min, and the sample injection volume was 5 μL. ESI source conditions were set as follows: dry gas temperature, 200° C.; flow, 11 L/min, fragmentor, 380 V; sheath gas temperature, 300° C.; flow, 9 L/min; nozzle voltage, 500 V; capillary voltage, −500 V in ESI negative mode. The instrument was set to acquire data over the m/z range 50-1000, with the MS acquisition rate of 1 spectra/s. […]

NCCS(=O)(=O)O [taurine, 2-aminoethanesulfonic acid]
MBP induction (Western blot), increase compared to benztropine-induced differentiation in the absence of taurine ([1]; 2 mM taurine added to benztropine (0.5 μM), 6 days): 2.0 fold | MBP induction (Western blot), increase compared to miconazole-induced differentiation in the absence of taurine ([1]; 2 mM taurine added to miconazole (2 μM), 6 days): 2.3 fold | Efficacy of induced OPC differentiation ([1]; added to benztropine- or miconazole-containing media): dramatically increase | Apoptosis in OPCs treated with staurosporine (OPCs [2]; 20 mM taurine with 1 μM staurosporine (apoptosis inducer)): significantly inhibit | Caspase 3/7 activation (OPCs [2]; 24 hours after taurine addition at day 0 or day 3, 1 μM T3, 0.5 μM benztropine or 2 μM miconazole): decrease | Apoptosis or survival under basal differentiation conditions (OPCs [2]; DMSO vehicle): not found to impact | Cysteine pool, increase with taurine (OPCs [3]; T3 1 μM): 58.8 fold | Serine pool, increase with taurine (OPCs [3]; T3 1 μM): 17.1 fold | Cysteine pool, increase with taurine (OPCs [3]; benztropine 0.5 μM): 154.4 fold | Serine pool, increase with taurine (OPCs [3]; benztropine 0.5 μM): 10.0 fold | Cysteine pool, increase with taurine (OPCs [3]; miconazole 2 μM): 76.5 fold | Serine pool, increase with taurine (OPCs [3]; miconazole 2 μM): 19.4 fold | GSH level, increase with taurine (OPCs [3]; day 3, T3 1 μM): 1.8 fold | Cysteine level, increase with taurine (OPCs [3]; day 6, T3 1 μM): 26.6 fold | GSH level, increase with taurine (OPCs [3]; day 6, T3 1 μM): 6.1 fold | Serine level, increase with taurine (OPCs [3]; day 6, T3 1 μM): 2.1 fold | Cysteine level, increase with taurine (OPCs [3]; day 6, benztropine 0.5 μM): 44.7 fold | Serine level, increase with taurine (OPCs [3]; day 6, benztropine 0.5 μM): 13.4 fold | Cysteine level, increase with taurine (OPCs [3]; day 6, miconazole 2 μM): 47.2 fold | Serine level, increase with taurine (OPCs [3]; day 6, miconazole 2 μM): 92.5 fold | Changes in GSH and glutamate with taurine (OPCs [3]; benztropine (0.5 μM) or miconazole (2 μM) treated cultures, both time points): only minimally altered
